Consider 15 compounds from patent US20170334927A1 (Shanghai Sun-sail Pharmaceutical Science & Technology Co., …, priority 2014, published 2017).

The structures appear in SMILES notation. ≈ marks a conversion by molar mass, not a printed value.

Holding throughout (experiment): microbe, parasite or virus in culture
Holding throughout (type): cell-based

Experiment [1] concerns drug-resistant Mycobacterium tuberculosis 261 (rifampicin-resistant). To be noted: for MIC: Mycobacterium tuberculosis, read-out: MIC, drug-resistant bacterium 261 (R single-resistant); for MIC value, times of that of the control drug PA-824, strain 261: relative to PA-824.
For experiment [2], the system named is drug-resistant Mycobacterium tuberculosis 242 (isoniazid-resistant). Particulars: for MIC: Mycobacterium tuberculosis, read-out: MIC, drug-resistant bacterium 242 (H single-resistant); for MIC value, times of that of the control drug PA-824, strain 242: relative to PA-824.
Experiment [3] concerns drug-resistant Mycobacterium tuberculosis 246 (streptomycin-resistant). To be noted: for MIC: Mycobacterium tuberculosis, read-out: MIC, drug-resistant bacterium 246 (S single-resistant); for MIC value, times of that of the control drug PA-824, strain 246: relative to PA-824.

As for `CC1CN(c2ccc(OC(F)(F)F)cc2)CCN1c1ccc(CN[C@@H]2COc3nc([N+](=O)[O-])cn3C2)cn1` (stereo partly drawn) [Compound 6, (3S)—N-((6-(2-methyl-4-(4-(trifluoromethoxy)phenyl)piperazin-1-yl)pyrid-3-yl)methyl)-7-nitro-3,4-dihydro-2H-imidazo[2,1-b][1,3]oxazin-3-amine], the MIC was 7.8 ng/mL (≈ 0.0146 µM) in experiment [1], 15.6 ng/mL (≈ 0.0292 µM) in experiment [2] and 7.8 ng/mL (≈ 0.0146 µM) in experiment [3].
Regarding `CC1CN(c2ccc(OC(F)(F)F)cc2)CCN1c1ncc(CN[C@@H]2COc3nc([N+](=O)[O-])cn3C2)cn1` (stereo partly drawn) [Compound 20, (3S)—N-((6-(2-methyl-4-(4-(trifluoromethoxy)phenyl)piperazin-1-yl)pyrimidin-3-yl)methyl)-7-nitro-3,4-dihydro-2H-imidazo[2,1-b][1,3]oxazin-3-amine], in experiment [1], the MIC worked out at 1.95 ng/mL (≈ 0.00365 µM) and the “MIC value, times of that of the control drug PA-824, strain 261” value (“MIC value, times of that … strain 261” for short) stood at 256 times. For the same compound, in experiment [2], the MIC was found to be 1.95 ng/mL (≈ 0.00365 µM) and the “MIC value, times of that of the control drug PA-824, strain 242” value (“MIC value, times of that … strain 242” for short) stood at 512 times. In addition, in experiment [3], the MIC stood at 1.95 ng/mL (≈ 0.00365 µM) and the “MIC value, times of that of the control drug PA-824, strain 246” value (“MIC value, times of that … strain 246” for short) is 256 times.
Consider `O=[N+]([O-])c1cn2c(n1)OC[C@@H](OCc1ccc(OC(F)(F)F)cc1)C2` [PA-824, reference compound], for which the figures for the MIC in experiment [1], in experiment [2] and in experiment [3] were 500 ng/mL (≈ 1.39 µM), 1000 ng/mL (≈ 2.78 µM) and 500 ng/mL (≈ 1.39 µM), respectively.
Regarding `N#CC1(c2ccc(OC(F)(F)F)cc2)CCN(c2ccc(CN[C@@H]3COc4nc([N+](=O)[O-])cn4C3)cn2)CC1` [Compound 10, (S)-1-(5-(((7-nitro-3,4-dihydro-2H-imidazo[2,1-b][1,3]oxazin-3-yl)amino)methyl)pyridin-2-yl)-4-(4-(trifluoromethoxy)phenyl)piperidine-4-carbonitrile], in experiment [1], the MIC was 1.95 ng/mL (≈ 0.00359 µM) and the “MIC value, times of that … strain 261” value was 256 times. In experiment [2], the MIC was 1.95 ng/mL (≈ 0.00359 µM) and the “MIC value, times of that … strain 242” value came out at 512 times. In addition, in experiment [3], the MIC was 1.95 ng/mL (≈ 0.00359 µM) and the “MIC value, times of that … strain 246” value amounted to 256 times.
`N#CC1(c2ccc(OC(F)(F)F)cc2)CCN(c2ncc(CN[C@@H]3COc4nc([N+](=O)[O-])cn4C3)cn2)CC1` [Compound 24, (S)-1-(5-(((7-nitro-3,4-dihydro-2H-imidazo[2,1-b][1,3]oxazin-3-yl)amino)methyl)pyrimidin-2-yl)-4-(4-(trifluoromethoxy)phenyl)piperidine-4-carbonitrile]: in experiment [1], the MIC came to 3.9 ng/mL (≈ 0.00716 µM) and the “MIC value, times of that … strain 261” value is reported as 128 times. Further, in experiment [2], the MIC stood at 3.9 ng/mL (≈ 0.00716 µM) and the “MIC value, times of that … strain 242” value is 256 times. In addition, in experiment [3], the MIC was found to be 3.9 ng/mL (≈ 0.00716 µM) and the “MIC value, times of that … strain 246” value was 128 times.
`CC1CN(c2ncc(CN[C@@H]3COc4nc([N+](=O)[O-])cn4C3)cn2)CCN1c1ccc(OC(F)(F)F)cc1` (stereo partly drawn) [Compound 19]: in experiment [1], the MIC was 7.8 ng/mL (≈ 0.0146 µM) and the “MIC value, times of that … strain 261” value came out at 64 times. Also, in experiment [2], the MIC came to 7.8 ng/mL (≈ 0.0146 µM) and the “MIC value, times of that … strain 242” value worked out at 128 times. For the same compound, in experiment [3], the MIC was 7.8 ng/mL (≈ 0.0146 µM) and the “MIC value, times of that … strain 246” value amounted to 64 times.
In the case of `O=[N+]([O-])c1cn2c(n1)OC[C@@H](NCc1ccc(N3C4CCC3CC(Oc3ccc(OC(F)(F)F)cc3)C4)nc1)C2` (stereo partly drawn) [Compound 14, (6S)-2-nitro-N-((6-(3-(4-(trifluoromethoxy)phenoxy)-8-azabicyclo[3.2.1]octan-8-yl)pyrid-3-yl)methyl)-6,7-dihydro-5H-imidazo[2,1-b][1,3]oxazin-6-amine], the MIC in experiment [1] was determined as 7.8 ng/mL (≈ 0.0139 µM); in experiment [2] it was 15.6 ng/mL (≈ 0.0278 µM); in experiment [3], 7.8 ng/mL (≈ 0.0139 µM).
`O=[N+]([O-])c1cn2c(n1)OC[C@@H](NCc1cnc(N3CCN(c4ccc(OC(F)(F)F)cc4)CC3)nc1)C2` [Compound 18]: in experiment [1], the MIC was 7.8 ng/mL (≈ 0.015 µM) and the “MIC value, times of that … strain 261” value turned out to be 64 times. Moreover, in experiment [2], the MIC was determined as 7.8 ng/mL (≈ 0.015 µM) and the “MIC value, times of that … strain 242” value was 128 times. Besides, in experiment [3], the MIC amounted to 7.8 ng/mL (≈ 0.015 µM) and the “MIC value, times of that … strain 246” value is listed as 64 times.
`CC1CN(c2ccc(CN[C@@H]3COc4nc([N+](=O)[O-])cn4C3)cn2)CCN1c1ccc(OC(F)(F)F)cc1` (stereo partly drawn) [Compound 5, (3S)—N-((6-(3-methyl-4-(4-(trifluoromethoxy)phenyl)piperazin-1-yl)pyrid-3-yl)methyl)-7-nitro-3,4-dihydro-2H-imidazo[2,1-b][1,3]oxazin-3-amine]: the MIC in experiment [1] turned out to be 1.95 ng/mL (≈ 0.00366 µM); in experiment [2], 3.9 ng/mL (≈ 0.00731 µM); in experiment [3], 1.95 ng/mL (≈ 0.00366 µM).
As to `N#Cc1nc(N2CCN(c3ccc(OC(F)(F)F)cc3)CC2)ncc1CN[C@@H]1COc2nc([N+](=O)[O-])cn2C1` [Compound 40, (S)-5-(((2-nitro-6,7-dihydro-5H-imidazo[2,1-b][1,3]oxazin-6-yl)amino)methyl)-2-(4-(4-(trifluoromethoxy)phenyl)piperazin-1-yl)pyrimidine-4-carbonitrile], in experiment [1], the MIC is 7.8 ng/mL (≈ 0.0143 µM) and the “MIC value, times of that … strain 261” value was 64 times. Besides, in experiment [2], the MIC came out at 7.8 ng/mL (≈ 0.0143 µM) and the “MIC value, times of that … strain 242” value was 128 times. In addition, in experiment [3], the MIC is 7.8 ng/mL (≈ 0.0143 µM) and the “MIC value, times of that … strain 246” value was 64 times.
With `O=[N+]([O-])c1cn2c(n1)OC[C@@H](NCc1cnc(N3CCN(c4ccc(C(F)(F)F)cc4)CC3)nc1)C2` [Compound 31, (S)-2-nitro-N-((2-(4-(4-(trifluoromethyl)phenyl)piperazin-1-yl)pyrimidin-5-yl)methyl)-6,7-dihydro-5H-imidazo[2,1-b][1,3]oxazin-6-amine], the MIC in experiment [1], in experiment [2] and in experiment [3] was 7.8 ng/mL (≈ 0.0155 µM) each time.
Regarding `O=[N+]([O-])c1cn2c(n1)OC[C@@H](NCc1ccc(N3CCN(c4ccc(OC(F)(F)F)cc4)CC3)nc1)C2` [Compound 4, (S)-2-nitro-N-((6-(4-(4-(trifluoromethoxy)phenyl)piperazin-1-yl)pyrid-3-yl)methyl)-6,7-dihydro-5H-imidazo[2,1-b][1,3]oxazin-6-amine], in experiment [1], the MIC worked out at 1.95 ng/mL (≈ 0.00375 µM) and the “MIC value, times of that … strain 261” value amounted to 256 times. Besides, in experiment [2], the MIC is 1.95 ng/mL (≈ 0.00375 µM) and the “MIC value, times of that … strain 242” value was 512 times. Also, in experiment [3], the MIC turned out to be 1.95 ng/mL (≈ 0.00375 µM) and the “MIC value, times of that … strain 246” value turned out to be 256 times.
For the compound `O=[N+]([O-])c1cn2c(n1)OC[C@@H](NCc1ccc(N3CCC(Oc4ccc(OC(F)(F)F)cc4)CC3)nc1)C2` [Compound 1, (S)-2-nitro-N-((6-(4-(4-(trifluoromethoxy)phenoxy)piperidin-1-yl)pyrid-3-yl)methyl)-6,7-dihydro-5H-imidazo[2,1-b][1,3]oxazin-6-amine], in experiment [1], the MIC was 7.8 ng/mL (≈ 0.0146 µM) and the “MIC value, times of that … strain 261” value turned out to be 64 times. In experiment [2], the MIC was determined as 7.8 ng/mL (≈ 0.0146 µM) and the “MIC value, times of that … strain 242” value came out at 128 times. Also, in experiment [3], the MIC amounted to 7.8 ng/mL (≈ 0.0146 µM) and the “MIC value, times of that … strain 246” value turned out to be 64 times.
As for `Cc1nc(N2CCN(c3ccc(OC(F)(F)F)cc3)CC2)ncc1CN[C@@H]1COc2nc([N+](=O)[O-])cn2C1` [Compound 36], in experiment [1], the MIC was found to be 7.8 ng/mL (≈ 0.0146 µM) and the “MIC value, times of that … strain 261” value is recorded as 64 times. Besides, in experiment [2], the MIC is 7.8 ng/mL (≈ 0.0146 µM) and the “MIC value, times of that … strain 242” value is 128 times. Also, in experiment [3], the MIC came out at 7.8 ng/mL (≈ 0.0146 µM) and the “MIC value, times of that … strain 246” value stood at 64 times.
For `CN(Cc1cnc(N2CCN(c3ccc(OC(F)(F)F)cc3)CC2)nc1)[C@@H]1COc2nc([N+](=O)[O-])cn2C1` [Compound 44, (S)—N-methyl-2-nitro-N-((2-(4-(4-(trifluoromethoxy)phenyl)piperazin-1-yl)pyrimidin-5-yl)methyl)-6,7-dihydro-5H-imidazo[2,1-b][1,3]oxazin-6-amine], in experiment [1], the MIC stood at 1.95 ng/mL (≈ 0.00365 µM) and the “MIC value, times of that … strain 261” value is on record as 256 times. Moreover, in experiment [2], the MIC worked out at 1.95 ng/mL (≈ 0.00365 µM) and the “MIC value, times of that … strain 242” value is given as 512 times. For the same compound, in experiment [3], the MIC amounted to 1.95 ng/mL (≈ 0.00365 µM) and the “MIC value, times of that … strain 246” value is recorded as 256 times.
